Melting point data for 24 compounds are collected here from publication PMC8537711, “Mechanistic Insights into Binding of Ligands with Thiazolidinedione Warhead to Human Histone Deacetylase 4” (Pharmaceuticals, 2021).

For the compound `Cc1ccc(C=C2SC(=O)N(CC(=O)Nc3nc4c(Cl)cccc4s3)C2=O)cc1` [GB2, N-(4-chlorobenzo[d]thiazol-2-yl)-2-(5-(4-methylbenzylidene)-2,4-dioxothiazolidin-3-yl)acetamide], the melting point (commonly the temperature, or range, at which the solid turns liquid) was 292 to 294 °C.

Take `Cc1ccc(C=C2SC(=O)N(CC(=O)Nc3nc4c(Cl)cccc4s3)C2=O)cc1C` [GB6, N-(4-chlorobenzo[d]thiazol-2-yl)-2-(5-(3,4-dimethylbenzylidene)-2,4-dioxothiazolidin-3-yl)acetamide]: the melting point was in the range of 214 to 216 °C. Consider `COc1cccc2sc(NC(=O)CN3C(=O)SC(=Cc4ccccc4)C3=O)nc12` [GB8, 2-(5-benzylidene-2,4-dioxothiazolidin-3-yl)-N-(4-methoxybenzo[d]thiazol-2-yl)acetamide], for which the melting point was in the range of 157 to 159 °C. The compound `Cc1cccc2sc(NC(=O)CN3C(=O)SC(=Cc4ccc(F)cc4)C3=O)nc12` [GB10, 2-(5-(4-fluorobenzylidene)-2,4-dioxothiazolidin-3-yl)-N-(4-methylbenzo[d]thiazol-2-yl)acetamide] yielded a melting point of 225 to 227 °C. The compound `O=C(CN1C(=O)SC(=Cc2ccccc2)C1=O)Nc1nc2c(F)cc(F)cc2s1` [GB12, 2-(5-benzylidene-2,4-dioxothiazolidin-3-yl)-N-(4,6-difluorobenzo[d]thiazol-2-yl)acetamide] showed a melting point of 280 to 282 °C. For `Cc1ccc2nc(NC(=O)CN3C(=O)SC(=Cc4ccc(F)cc4F)C3=O)sc2c1` [GB13, 2-(5-(2,4-difluorobenzylidene)-2,4-dioxothiazolidin-3-yl)-N-(6-methylbenzo[d]thiazol-2-yl)acetamide] the value was 266 to 268 °C; for `Cc1ccc(C=C2SC(=O)N(CC(=O)Nc3nc4c(F)cc(F)cc4s3)C2=O)cc1` [GB19, N-(4,6-difluorobenzo[d]thiazol-2-yl)-2-(5-(4-methylbenzylidene)-2,4-dioxothiazolidin-3-yl)acetamide], 295 to 297 °C; for `Cc1ccc(C=C2SC(=O)N(CC(=O)Nc3nc4c(F)cc(F)cc4s3)C2=O)cc1C` [GB20, N-(4,6-difluorobenzo[d]thiazol-2-yl)-2-(5-(3,4-dimethylbenzylidene)-2,4-dioxothiazolidin-3-yl)acetamide], 271 to 273 °C. In the case of `Cc1cc2nc(NC(=O)CN3C(=O)SC(=Cc4ccccc4)C3=O)sc2cc1C` [GB22, 2-(5-benzylidene-2,4-dioxothiazolidin-3-yl)-N-(5,6-dimethylbenzo[d]thiazol-2-yl)acetamide], the melting point was in the range of 276 to 278 °C. On to `Cc1cc2nc(NC(=O)CN3C(=O)SC(=Cc4ccc(F)cc4)C3=O)sc2cc1C` [GB25, N-(5,6-dimethylbenzo[d]thiazol-2-yl)-2-(5-(4-fluorobenzylidene)-2,4-dioxothiazolidin-3-yl)acetamide], for which the melting point lay within 298 to 299 °C. For `Cc1ccc(C=C2SC(=O)N(CC(=O)Nc3nc4cc(C)c(C)cc4s3)C2=O)cc1C` [GB26, N-(5,6-dimethylbenzo[d]thiazol-2-yl)-2-(5-(3,4-dimethylbenzylidene)-2,4-dioxothiazolidin-3-yl)acetamide] the value was 284 to 286 °C. `O=C(CN1C(=O)SC(=Cc2ccc(F)cc2F)C1=O)Nc1nc2c(F)cc(F)cc2s1` [GB29, N-(4,6-difluorobenzo[d]thiazol-2-yl)-2-(5-(2,4-difluorobenzylidene)-2,4-dioxothiazolidin-3-yl)acetamide]: the melting point was in the range of 274 to 276 °C. The compound `O=C(CN1C(=O)SC(=Cc2ccccc2)C1=O)Nc1nc2c(F)cccc2s1` [GB30, 2-(5-benzylidene-2,4-dioxothiazolidin-3-yl)-N-(4-fluorobenzo[d]thiazol-2-yl)acetamide] showed a melting point of 272 to 274 °C. Next, `Cc1ccc2nc(NC(=O)CN3C(=O)SC(=Cc4ccc(Br)cc4)C3=O)sc2c1` [GB31, 2-(5-(4-bromobenzylidene)-2,4-dioxothiazolidin-3-yl)-N-(6-methylbenzo[d]thiazol-2-yl)acetamide]: 292 to 294 °C; `O=C(CN1C(=O)SC(=Cc2ccc(Cl)cc2)C1=O)Nc1nc2ccc(F)cc2s1` [GB33, 2-(5-(4-chlorobenzylidene)-2,4-dioxothiazolidin-3-yl)-N-(6-fluorobenzo[d]thiazol-2-yl)acetamide]: 290 to 292 °C; `O=C(CN1C(=O)SC(=Cc2ccc(F)cc2)C1=O)Nc1nc2ccc(F)cc2s1` [GB34, N-(6-fluorobenzo[d]thiazol-2-yl)-2-(5-(4-fluorobenzylidene)-2,4-dioxothiazolidin-3-yl)acetamide]: 260 to 262 °C.

As for `COc1cccc2sc(NC(=O)CN3C(=O)SC(=Cc4ccc(F)cc4)C3=O)nc12` [GB35, 2-(5-(4-fluorobenzylidene)-2,4-dioxothiazolidin-3-yl)-N-(4-methoxybenzo[d]thiazol-2-yl)acetamide], the melting point came to 172 °C.

Take `Cc1cccc2sc(NC(=O)CN3C(=O)SC(=Cc4ccccn4)C3=O)nc12` [PB2, 2-(2,4-dioxo-5-(pyridin-2-ylmethylene)thiazolidin-3-yl)-N-(4-methylbenzo[d]thiazol-2-yl)acetamide]: the melting point is 260 °C (dec.). With `O=C(CN1C(=O)SC(=Cc2ccccn2)C1=O)Nc1nc2c(Cl)cccc2s1` [PB4, N-(4-chlorobenzo[d]thiazol-2-yl)-2-(2,4-dioxo-5-(pyridin-2-ylmethylene)thiazolidin-3-yl)acetamide], the melting point is 273 °C (dec.).

As for `O=C(CN1C(=O)SC(=Cc2ccccn2)C1=O)Nc1nc2c(F)cc(F)cc2s1` [PB5, N-(4,6-difluorobenzo[d]thiazol-2-yl)-2-(2,4-dioxo-5-(pyridin-2-ylmethylene)thiazolidin-3-yl)acetamide], the melting point was 294 °C (dec.). Turning to `Cc1cc2nc(NC(=O)CN3C(=O)SC(=Cc4ccccn4)C3=O)sc2cc1C` [PB6, N-(5,6-dimethylbenzo[d]thiazol-2-yl)-2-(2,4-dioxo-5-(pyridin-2-ylmethylene)thiazolidin-3-yl)acetamide], the melting point is 295 °C (dec.).

In turn, `COc1cccc2sc(NC(=O)CN3C(=O)SC(=Cc4ccccn4)C3=O)nc12` [PB7, 2-(2,4-dioxo-5-(pyridin-2-ylmethylene)thiazolidin-3-yl)-N-(4-methoxybenzo[d]thiazol-2-yl)acetamide] displayed a melting point of 220 to 222 °C. Regarding `CCOc1ccc2nc(NC(=O)CN3C(=O)SC(=Cc4ccccn4)C3=O)sc2c1` [PB8, 2-(2,4-dioxo-5-(pyridin-2-ylmethylene)thiazolidin-3-yl)-N-(6-ethoxybenzo[d]thiazol-2-yl)acetamide], the melting point was 230 °C (dec.). For the compound `O=C(CN1C(=O)SC(=Cc2ccccn2)C1=O)Nc1nc2ccc(F)cc2s1` [PB9, 2-(2,4-dioxo-5-(pyridin-2-ylmethylene)thiazolidin-3-yl)-N-(6-fluorobenzo[d]thiazol-2-yl)acetamide], the melting point was 265 °C (dec.).
